# Test results as given in patent US20220016200A1, “PHARMACEUTICAL COMPOSITION FOR THE TREATMENT OF CYSTIC FIBROSIS” (GALENUS G.H. AG, priority 2018, published 2022).
# Like-named read-outs stand apart in the source and are kept apart here. Bridge positions count the residues as written; N and C are the ends. Square brackets hold non-standard residues; d marks the D form. Peptide text beside a SMILES is read from it. * marks the point of attachment. Heptanoyl(5-Me) = CCC(C)CCCC(=O)*; Dab = NCC[C@H](N)C(=O)O
# Key:
# A. junii 1397597 = test: Checkerboard colistin sulphate (CS) plus teicoplanin (TP), MIC/FIC and MBC/FBC; format: cell-based, Acinetobacter junii; conditions: Acinetobacter junii, 1397597; A. junii; agent alone; CAMHB, 5*10^5 CFU/ml; read-out: MBC
# Protocol: (§1) Checkerboard analysis to determine minimal inhibitory concentration (MIC)/fractional inhibitory concentration (FIC) and minimal bacterial concentration (MBC)/fractional bacterial concentration (FBC) values of colistin sulphate (CS) plus teicoplanin (TP) for 6 Gram-negative strains with a bacterial load 5(1-10)*10^5 CFU/ml in a cation-adjusted Mueller-Hinton broth (CAMHB). • a. Antimicrobial stock solutions were prepared using sterile distilled water • b. CS was added along the ordinate; TP was added along the abscissa to 96 well, flat bottom, polystyrene panels with no treatment. Colistin alone was tested in triplicates. • c. Serial 2-fold dilutions starting with 640 μg/ml CS and 640 μg/ml TP were made; 15 μl volume of the serial dilutions were added for each agent to the appropriate wells; final volume at 30 μl • d. For each agent tested alone an additional 15 μl media was added to the well. 30 μl were added in control wells where none of the agent was tested. The negative control well contains 150 μl media without any additions • e. From an overnight bacterial culture in tryptic soy broth, 100 μL was added to 10 mL of fresh tryptic soy broth. This was then incubated at 37° C. for 1.5 hour at 180 rpm. • f. Bacteria in 120 μl CAMHB were added to each well (end concentration 5(1-10)*10^5 CFU/ml) • g. Plates were incubated at 37° C. in an ambient air incubator for 24 h • h. Turbidity at OD600 is determined with a plate photometer • i. By using a one-time inoculator 3 μl from each well of the 96-well plate were transferred to three blood agar plates. The plates were incubated over night at 37° C. in an ambient air incubator • j. […] Determination of the fractional inhibitory concentration (FIC) index and fractional bactericidal concentration (FBC) index and characterization of antimicrobial interactions was assessed […]
# (§2) Interactive categories were calculated from checkerboard analysis using MIC results from testing each agent alone and MIC results from the combination wells adjacent to the wells with growth in them […]
# S. maltophilia 1221783 = test: as above; format: cell-based, Stenotrophomonas maltophilia; conditions: agent alone, CAMHB, 5*10^5 CFU/ml
# Protocol: as §1, §2
# [1] = tested on: A. nosocomialis strain (1204194 IHMA); test: Colistin MIC of the susceptible strain used in the mouse model; format: cell-based; conditions: Acinetobacter nosocomialis; colistin susceptible A. nosocomialis strain 1204194 IHMA
# Protocol: (§3) One colistin susceptible (MIC 1 mg/L) A. nosocomialis strain (1204194 IHMA) and one colistin resistant (MIC 4 mg/L) A. nosocomialis strain (1461911 IHMA) are used. […] Fresh brain heart infusion broth (Merck, Darmstadt, Germany) bacterial cultures, in an aerobic atmosphere in the logarithmic growth phase (4-5 hours) at 37° C., are adjusted to a concentration of 1.0×10^6 colony forming units (CFU)/mL, as verified by both spectrophotometry (OD600 0.01-0.02 nm) and colony counting.
# [2] = tested on: A. nosocomialis strain (1204194 IHMA); test: Pneumonic mouse model, colistin susceptible strain; format: in vivo, Acinetobacter nosocomialis
# Protocol: as §3
# A pneumonic mouse model was used. 8- to 12-week-old, specific-pathogen free, male or female BALB/c mice, with 25-35 g in weight, are used for the study Animals have free access to food and water except during experimental procedures. All studies are performed in accordance with the ethical guidelines for the care and use of laboratory animals, and the protocol is approved by an independent ethical commission.
# For inoculation, fresh inocula are prepared for each experiment from frozen stocks of the two A. nosocomialis isolates (1204194 and 1461911 IHMA). Broth cultures of freshly plated A. nosocomialis bacteria are grown to logarithmic phase overnight to an absorbance of 0.3 at 630 nm and diluted to 10^7 CFU/ml in saline. Mice are anesthetized by intraperitoneal (i.p.) injection of 12.5 mg/kg (5 μl) xylazine and 80 mg/kg (25 μl) ketamine and then inoculated intranasally with 0.05 ml of this bacterial suspension. […]
smiles,measurement,setting,value
"CCC(C)CCCC(=O)N[C@@H](CCN)C(=O)N[C@H](C(=O)N[C@@H](CCN)C(=O)N[C@H]1CCNC(=O)[C@H]([C@@H](C)O)NC(=O)[C@H](CCN)NC(=O)[C@H](CCN)NC(=O)[C@H](CC(C)C)NC(=O)[C@@H](CC(C)C)NC(=O)[C@H](CCN)NC1=O)[C@@H](C)O (stereo partly drawn) [CS, colistin sulphate] ({Heptanoyl(5-Me)}-[Dab]T[Dab][Dab][Dab][dL]L[Dab][Dab]T; lactam 4-C)",MBC,A. junii 1397597,8 µg/mL
same,MIC,"S. maltophilia 1221783; Stenotrophomonas maltophilia, 1221783, 24 h, read-out: MIC",≤ 0.5 µg/mL
same,MIC,S. maltophilia 1221783; 24 h,0.25 µg/mL
same,MIC,[1],1 µg/mL
same,mice that survive until day 3,"[2]; BALB/c mice, 3 per group, colistin susceptible strain, one intramuscular dose 24 hours after inoculation, combination groups stated together for both strains (6 mice)",2/3
same,numbers of A. nosocomialis in the lung tissue,"[2]; day 3, confirmed by qRT-PCR, two surviving monotherapy mice compared with all mice treated with colistin sulphate and teicoplanin or colistin sulphate and fusidic acid",significantly higher numbers
